# Numbered stars: 1 amine (or outer) side, 2 acyl side, 3 side chain; on linkers, the order of the positions; unused ones are H or OH. Bridge positions count the residues as written; N and C are the ends. Square brackets hold non-standard residues; d marks the D form. Peptide text beside a SMILES is read from it. * marks the point of attachment. C20 diacid = O=C(O)CCCCCCCCCCCCCCCCCCC(=O)*; γGlu = O=C(O)[C@H](CCC(=O)[*:2])N[*:1]; Hyp = O=C(O)[C@@H]1C[C@@H](O)CN1; NMeI = CC[C@H](C)[C@H](NC)C(=O)O; Aad = N[C@@H](CCCC(=O)O)C(=O)O; Sar = CNCC(=O)O
# How the values were obtained:
# [1] = Assessment of physical stability: fibril formation by Thioflavin T fluorescence; type: physicochemical; design: key: FND = fibrillation not detected; FD = fibrillation detected; conditions: 1 mg/mL peptide; for Fibrillation (in buffer) pH4 acetate: 50 mM acetate buffer pH 4.0, 96 hours at 40° C.; for Fibrillation (in buffer) pH7 histidine: 50 mM histidine buffer pH 7.0, 96 hours at 40° C.; for Fibrillation (in buffer) pH7 phosphate: 50 mM phosphate buffer pH 7.0, 96 hours at 40° C.
# Summary of the method: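 Test peptide at 1 mg/mL with 40 μM ThT in 50 mM phosphate pH 7.0, 50 mM histidine pH 7.0, or 50 mM acetate pH 4.0, in triplicate. Fluorescence read every 10 min after 300 s agitation for 96 hours at 40° C; significant intensity rise scored as fibrillation detected (FD).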
# [2] = Assessment of chemical stability in 40 mM buffers at 40° C. (RP-HPLC); type: physicochemical; conditions: 1 mg/mL; for % degradation after 72 h at 40° C. pH4 acetate: acetate buffer pH 4, 72 h; for % degradation after 72 h at 40° C. pH6 phosphate: phosphate buffer pH 6, 72 h; for % degradation after 72 h at 40° C. pH7 phosphate: phosphate buffer pH 7, 72 h; for % degradation after 14 days at 40° C. pH4 acetate: acetate buffer pH 4, 14 days; for % degradation after 14 days at 40° C. pH6 phosphate: phosphate buffer pH 6, 14 days; for % degradation after 14 days at 40° C. pH7 phosphate: phosphate buffer pH 7, 14 days
# Summary of the method: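 Peptides at 1 mg/mL in 40 mM acetate pH 4 or phosphate pH 6 and 7 were held at 40° C for 3 and 14 days. Main-peak area-% by C8 RP-HPLC, UV 220 nm; % degradation = change in main-peak area-% versus t=0.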
# [3] = target: T1, recombinant human calcitonin receptor (hCT-R) (Homo sapiens, UniProt P30988); experiment: hCT-R cAMP assay (AlphaScreen) in 1321N1 cells; type: cell-based; conditions: cAMP formation, 45 min stimulation
# T1 construct: host or cells: human astrocytoma cell line 1321N1
# T1 sequence (P30988 25-474): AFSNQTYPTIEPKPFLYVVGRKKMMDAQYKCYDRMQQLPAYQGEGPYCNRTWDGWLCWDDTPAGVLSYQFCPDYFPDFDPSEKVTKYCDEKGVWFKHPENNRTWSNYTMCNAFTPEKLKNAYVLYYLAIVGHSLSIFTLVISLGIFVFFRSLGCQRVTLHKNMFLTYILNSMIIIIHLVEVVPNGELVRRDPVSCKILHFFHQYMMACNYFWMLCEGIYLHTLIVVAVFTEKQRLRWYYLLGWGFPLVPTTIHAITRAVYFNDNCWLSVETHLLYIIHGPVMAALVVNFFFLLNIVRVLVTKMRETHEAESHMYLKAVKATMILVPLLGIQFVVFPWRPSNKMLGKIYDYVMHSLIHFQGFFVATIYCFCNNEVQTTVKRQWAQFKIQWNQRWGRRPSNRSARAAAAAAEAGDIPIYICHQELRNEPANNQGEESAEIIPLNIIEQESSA
# Summary of the method: (§1)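 1321N1 astrocytoma cells expressing recombinant human calcitonin receptor alone or with RAMP3 (AMY3) stimulated 45 min at room temperature with peptide in IBMX-containing buffer. cAMP quantified by AlphaScreen after 1 h bead incubation; EC50 fitted from at least 7 concentrations.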
# [4] = target: T2, recombinant human amylin 3 receptor (hAMYR3) (Homo sapiens, UniProt O60896+P30988); experiment: hAMYR3 cAMP assay (AlphaScreen) in 1321N1 cells; type: cell-based; conditions: cAMP formation, 45 min stimulation
# T2 construct: host or cells: human astrocytoma cell line 1321N1
# T2 sequence (P30988 25-474): T1 sequence (P30988 25-474)
# T2 sequence (O60896 24-148 partner): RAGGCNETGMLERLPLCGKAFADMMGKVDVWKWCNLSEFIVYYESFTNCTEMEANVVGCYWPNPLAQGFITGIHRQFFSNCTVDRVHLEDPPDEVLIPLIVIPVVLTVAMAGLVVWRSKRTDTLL
# Summary of the method: as §1
Structure (SMILES),Fibrillation (in buffer) pH4 acetate [1],Fibrillation (in buffer) pH7 histidine [1],Fibrillation (in buffer) pH7 phosphate [1],% degradation after 72 h at 40° C. pH4 acetate [2],% degradation after 72 h at 40° C. pH6 phosphate [2],% degradation after 72 h at 40° C. pH7 phosphate [2],EC50 [3],EC50 [4],% degradation after 14 days at 40° C. pH4 acetate [2],% degradation after 14 days at 40° C. pH6 phosphate [2],% degradation after 14 days at 40° C. pH7 phosphate [2]
"CC[C@H](C)[C@@H](C(=O)N[C@@H](CC(C)C)C(=O)N[C@@H](CO)C(=O)N[C@@H](CO)C(=O)N[C@H](C(=O)N[C@@H](CCC(=O)O)C(=O)N[C@H](C(=O)NCC(=O)N[C@@H](CO)C(=O)N[C@@H](CC(N)=O)C(=O)N[C@H](C(=O)N1C[C@H](O)C[C@H]1C(N)=O)[C@@H](C)O)C(C)C)[C@@H](C)O)N(C)C(=O)[C@H](C)NC(=O)CN(C)C(=O)[C@H](Cc1ccccc1)NC(=O)[C@H](CC(N)=O)NC(=O)[C@H](C)NC(=O)[C@H](CCCNC(=N)N)NC(=O)[C@H](CCC(N)=O)NC(=O)[C@H](CC(C)C)NC(=O)[C@H](Cc1ccccc1)NC(=O)[C@H](CCCC(=O)O)NC(=O)[C@H](C)NC(=O)[C@H](CC(C)C)NC(=O)[C@H](CCCNC(=N)N)NC(=O)[C@H](CCC(=O)O)NC(=O)[C@@H](NC(=O)[C@H](C)NC(=O)[C@@H]1CCCCNC(=O)C[C@H](NC(=O)[C@H](CCCNC(=N)N)NC(=O)CC[C@H](NC(=O)CCCCCCCCCCCCCCCCCCC(=O)O)C(=O)O)C(=O)NCC(=O)N[C@@H]([C@@H](C)O)C(=O)N[C@@H](C)C(=O)N[C@@H]([C@@H](C)O)C(=O)N1)[C@@H](C)O [Compound 33, [19CD]-isoGlu-RD()GTATK()ATERLA-Aad-FLQRANF-Gly(Me)-A-Ile(Me)-LSSTEVGSNT-Hyp-NH2] ({C20 diacid-γGlu}-RDGTATKATERLA[Aad]FLQRANF[Sar]A[NMeI]LSSTEVGSNT[Hyp]-NH2; lactam 2-7)",FND,FND,FND,<1%,1%,<1%,0.019 nM,0.009 nM,–,–,–
"CC[C@H](C)[C@@H](C(=O)N1CCC[C@H]1C(=O)N[C@@H](CO)C(=O)N[C@@H](CO)C(=O)N[C@H](C(=O)N[C@@H](CCC(=O)O)C(=O)N[C@H](C(=O)NCC(=O)N[C@@H](CO)C(=O)N[C@@H](CC(N)=O)C(=O)N[C@H](C(=O)N1C[C@H](O)C[C@H]1C(N)=O)[C@@H](C)O)C(C)C)[C@@H](C)O)N(C)C(=O)[C@H](C)NC(=O)CN(C)C(=O)[C@H](Cc1ccccc1)NC(=O)[C@H](CO)NC(=O)[C@H](CO)NC(=O)[C@H](CCCNC(=N)N)NC(=O)[C@H](CCC(N)=O)NC(=O)[C@H](CC(C)C)NC(=O)[C@H](Cc1ccccc1)NC(=O)[C@H](CCCC(=O)O)NC(=O)[C@H](C)NC(=O)[C@H](CC(C)C)NC(=O)[C@H](CCCNC(=N)N)NC(=O)[C@H](CCC(=O)O)NC(=O)[C@@H](NC(=O)[C@H](C)NC(=O)[C@@H]1CCCCNC(=O)C[C@H](NC(=O)[C@H](CCCNC(=N)N)NC(=O)CC[C@H](NC(=O)CCCCCCCCCCCCCCCCCCC(=O)O)C(=O)O)C(=O)NCC(=O)N[C@@H]([C@@H](C)O)C(=O)N[C@@H](C)C(=O)N[C@@H]([C@@H](C)O)C(=O)N1)[C@@H](C)O [Compound 34, [19CD]-isoGlu-RD()GTATK()ATERLA-Aad-FLQRSSF-Gly(Me)-A-Ile(Me)-PSSTEVGSNT-Hyp-NH2] ({C20 diacid-γGlu}-RDGTATKATERLA[Aad]FLQRSSF[Sar]A[NMeI]PSSTEVGSNT[Hyp]-NH2; lactam 2-7)",FND,FND,FND,<1%,<1%,2.8%,0.206 nM,0.063 nM,–,–,–
"CC[C@H](C)[C@@H](C(=O)N[C@@H](CC(C)C)C(=O)N[C@@H](CO)C(=O)N[C@@H](CO)C(=O)N[C@H](C(=O)N[C@@H](CCC(=O)O)C(=O)N[C@H](C(=O)NCC(=O)N[C@@H](CO)C(=O)N[C@@H](CC(N)=O)C(=O)N[C@H](C(=O)N1C[C@H](O)C[C@H]1C(N)=O)[C@@H](C)O)C(C)C)[C@@H](C)O)N(C)C(=O)[C@H](C)NC(=O)CN(C)C(=O)[C@H](Cc1ccccc1)NC(=O)[C@H](CO)NC(=O)[C@H](CO)NC(=O)[C@H](CCCNC(=N)N)NC(=O)[C@H](CCC(N)=O)NC(=O)[C@H](CC(C)C)NC(=O)[C@H](Cc1ccccc1)NC(=O)[C@H](CCCC(=O)O)NC(=O)[C@H](C)NC(=O)[C@H](CC(C)C)NC(=O)[C@H](CCCNC(=N)N)NC(=O)[C@H](CCC(=O)O)NC(=O)[C@@H](NC(=O)[C@H](C)NC(=O)[C@@H]1CSSC[C@H](NC(=O)[C@H](CCCNC(=N)N)NC(=O)CC[C@H](NC(=O)CCCCCCCCCCCCCCCCCCC(=O)O)C(=O)O)C(=O)NCC(=O)N[C@@H]([C@@H](C)O)C(=O)N[C@@H](C)C(=O)N[C@@H]([C@@H](C)O)C(=O)N1)[C@@H](C)O [Ref. 4, [19CD]-isoGlu-RC()GTATC()ATERLA-Aad-FLQRSSF-Sar-A-Ile(Me)-LSSTEVGSNT-Hyp-NH2, reference compound] ({C20 diacid-γGlu}-RCGTATCATERLA[Aad]FLQRSSF[Sar]A[NMeI]LSSTEVGSNT[Hyp]-NH2; disulfide 2-7)",FND,FND,FND,–,–,–,0.075 nM,0.031 nM,3.2%,12.6%,20.3%
"CC[C@H](C)[C@@H](C(=O)N[C@@H](CC(C)C)C(=O)N[C@@H](CO)C(=O)N[C@@H](CO)C(=O)N[C@H](C(=O)N[C@@H](CCC(=O)O)C(=O)N[C@H](C(=O)NCC(=O)N[C@@H](CO)C(=O)N[C@@H](CC(N)=O)C(=O)N[C@H](C(=O)N1C[C@H](O)C[C@H]1C(N)=O)[C@@H](C)O)C(C)C)[C@@H](C)O)N(C)C(=O)[C@H](C)NC(=O)CN(C)C(=O)[C@H](Cc1ccccc1)NC(=O)[C@H](CO)NC(=O)[C@H](CO)NC(=O)[C@H](CCCNC(=N)N)NC(=O)[C@H](CCC(N)=O)NC(=O)[C@H](CC(C)C)NC(=O)[C@H](Cc1ccccc1)NC(=O)[C@H](CC(=O)O)NC(=O)[C@H](C)NC(=O)[C@H](CC(C)C)NC(=O)[C@H](CCCNC(=N)N)NC(=O)[C@H](CCC(N)=O)NC(=O)[C@@H](NC(=O)[C@H](C)NC(=O)[C@@H]1CSSC[C@H](NC(=O)[C@H](CCCNC(=N)N)NC(=O)CC[C@H](NC(=O)CCCCCCCCCCCCCCCCCCC(=O)O)C(=O)O)C(=O)N[C@@H](CC(N)=O)C(=O)N[C@@H]([C@@H](C)O)C(=O)N[C@@H](C)C(=O)N[C@@H]([C@@H](C)O)C(=O)N1)[C@@H](C)O [Ref. 5, [19CD]-isoGlu-RC()NTATC()ATQRLADFLQRSSF-Sar-A-Ile(Me)-LSSTEVGSNT-Hyp-NH2, reference compound] ({C20 diacid-γGlu}-RCNTATCATQRLADFLQRSSF[Sar]A[NMeI]LSSTEVGSNT[Hyp]-NH2; disulfide 2-7)",FD,FND,FND,–,–,–,0.063 nM,0.028 nM,3.0%,5.1%,12.7%
